Measurements: patent US12054466B2, “Compounds for the treatment of clostridium difficile infection” (University of Notre Dame du Lac, priority 2016, dated 2024)
In brackets after ≈: the same amount, converted by molar mass. Entries after “also recorded” stand apart in the source; their conditions may differ. Read-outs that look alike come from different tables or passages of the source.

Experiments:
[1] = system: Lactobacillus reuteri HM-102; test: MIC against common gut bacteria; type: cell-based; details: Limosilactobacillus reuteri, HM102
Bacteroides ovatus = test: MIC against common gut bacteria; type: cell-based
Veillonella sp. HM-49 = test: MIC against common gut bacteria; type: cell-based; details: Veillonella, SP.HM49
C. difficile NR49318 = test: MIC, broth microdilution; type: cell-based; details: Clostridioides difficile
[2] = system: Corynebacterium sp. HM-784; test: MIC against common gut bacteria; type: cell-based; details: Corynebacterium, SP.HM784
Description: Minimally-inhibitory concentrations. MICs for C. difficile strains and the common gut bacteria were determined using broth microdilution techniques as reported earlier using brucella broth supplemented with hemin and vitamin K or supplemented BHIS broth (Babakhani et al., J Antimicrob Chemother 2013, 68(3), 515). Lactobacillus MRS broth was used for lactobacillus strains. […] All incubations unless specified otherwise were carried out at 24 or 48 h at 37° C. in an anaerobic chamber (Whitley DG250 workstation, Microbiology International, Frederick, MD). Corynebacterium and lactobacillus species were incubated aerobically.

C. difficile [3] = details: cited from earlier work
C. difficile ATCC43255 = test: MIC, broth microdilution; type: cell-based; details: Clostridioides difficile
Bacteroides caccae = test: MIC against common gut bacteria; type: cell-based
C. difficile BAA-1812 = test: MIC, broth microdilution; type: cell-based; details: Clostridioides difficile
C. difficile BAA-1814 = test: MIC, broth microdilution; type: cell-based; details: Clostridioides difficile
Bacteroides vulgatus = test: MIC against common gut bacteria; type: cell-based; details: Phocaeicola vulgatus
C. difficile BAA-1803 = test: MIC, broth microdilution; type: cell-based; details: Clostridioides difficile
Bacteroides eggerthii = test: MIC against common gut bacteria; type: cell-based
C. difficile NR49294 = test: MIC, broth microdilution; type: cell-based; details: Clostridioides difficile
[4] = system: C. difficile strain ATCC 43255; test: Mouse model of recurrent CDI, second study: fecal cell, spore and toxin evaluation; type: in vivo, mice
Description: C. difficile Mouse Model. […] A negative vehicle control will be included. […] This study was conducted in duplicates.
A second study was conducted with oxadiazole 2 given po at 20 or 40 mg/kg for 5 days and vancomycin administered at 50 mg/kg po for 5 days. Fecal samples were collected on days 3, 7, and 10 for C. difficile spore and toxin evaluation.

C. difficile infection = details: patients treated for CDI; cited from earlier work
C. difficile BAA-1804 = test: MIC, broth microdilution; type: cell-based; details: Clostridioides difficile
Bacteroides fragilis = test: MIC against common gut bacteria; type: cell-based
[5] = system: Fusobacterium nucleatum HM-992; test: MIC against common gut bacteria; type: cell-based; details: Fusobacterium nucleatum, HM992
[6] = system: Bacteroides fragilis HM-709; test: MIC against common gut bacteria; type: cell-based; details: Bacteroides fragilis, HM709
C. difficile ATCC43598 = test: MIC, broth microdilution; type: cell-based; details: Clostridioides difficile
C. difficile BAA-1801 = test: MIC, broth microdilution; type: cell-based; details: Clostridioides difficile
[7] = system: C. difficile strain ATCC 43255; test: Mouse model of recurrent CDI, survival; details: po once a day for 5 days; oxadiazole 2 20 mg/kg/day, vancomycin 50 mg/kg/day
[8] = system: Lactobacillus gasseri HM-644; test: MIC against common gut bacteria; type: cell-based; details: Lactobacillus gasseri, HM644
C. difficile NR49292 = test: MIC, broth microdilution; type: cell-based; details: Clostridioides difficile
[9] = system: Bifidobacterium longum HM-846; test: MIC against common gut bacteria; type: cell-based; details: Bifidobacterium longum, HM846
C. difficile [10] = test: MIC against C. difficile (strain not named; 14 strains overall); type: cell-based, Clostridium difficile

`CN[C@H](CC(C)C)C(=O)N[C@H]1C(=O)N[C@@H](CC(N)=O)C(=O)N[C@H]2C(=O)N[C@H]3C(=O)N[C@H](C(=O)N[C@H](C(=O)O)c4cc(O)cc(O)c4-c4cc3ccc4O)[C@H](O)c3ccc(c(Cl)c3)Oc3cc2cc(c3O[C@@H]2O[C@H](CO)[C@@H](O)[C@H](O)[C@H]2O[C@H]2C[C@](C)(N)[C@H](O)[C@H](C)O2)Oc2ccc(cc2Cl)[C@H]1O` [vancomycin] gave an MIC [1] of over 32 µg/mL, an MIC (Bacteroides ovatus) of 16 µg/mL (≈ 11 µM) and an MIC (Veillonella sp. HM-49) of over 32 µg/mL. For the same molecule, the MIC (C. difficile NR49318; NR49318, 24 h, read-out: MIC at 24 h) was 0.25 µg/mL (≈ 0.173 µM), the MIC (C. difficile NR49318; NR49318, 48 h, read-out: MIC at 48 h) was 0.25 µg/mL (≈ 0.173 µM) and the MIC [2] was 0.25 µg/mL (≈ 0.173 µM). For the same molecule, the “Activity against C. difficile spores” value (C. difficile [3]; at 8× or 80× MIC) was “not active”, the “Inhibition of toxin production” value (C. difficile [3]; at 8×MIC) was “Neither vancomycin nor metronidazole inhibit toxin production” and the MIC (C. difficile ATCC43255; ATCC43255, 24 h, read-out: MIC at 24 h) was 0.5 µg/mL (≈ 0.345 µM). It also gave an MIC (C. difficile ATCC43255; ATCC43255, 48 h, read-out: MIC at 48 h) of 0.5 µg/mL (≈ 0.345 µM), an MIC (Bacteroides caccae) of 32 µg/mL (≈ 22.1 µM) and an MIC (C. difficile BAA-1812; BAA1812, 24 h, read-out: MIC at 24 h) of 0.25 µg/mL (≈ 0.173 µM). The MIC (C. difficile BAA-1812; BAA1812, 48 h, read-out: MIC at 48 h) was 0.5 µg/mL (≈ 0.345 µM), the MIC (C. difficile BAA-1814; BAA1814, 24 h, read-out: MIC at 24 h) was 0.5 µg/mL (≈ 0.345 µM) and the MIC (C. difficile BAA-1814; BAA1814, 48 h, read-out: MIC at 48 h) was 0.5 µg/mL (≈ 0.345 µM). It also gave an MIC (Bacteroides vulgatus) of 16 µg/mL (≈ 11 µM), an MIC (C. difficile BAA-1803; BAA1803, 24 h, read-out: MIC at 24 h) of 1 µg/mL (≈ 0.69 µM) and an MIC (C. difficile BAA-1803; BAA1803, 48 h, read-out: MIC at 48 h) of 2 µg/mL (≈ 1.38 µM). For the same molecule, the MIC (Bacteroides eggerthii) was 8 µg/mL (≈ 5.52 µM), the MIC (C. difficile NR49294; NR49294, 24 h, read-out: MIC at 24 h) was 0.25 µg/mL (≈ 0.173 µM) and the MIC (C. difficile NR49294; NR49294, 48 h, read-out: MIC at 48 h) was 0.25 µg/mL (≈ 0.173 µM). The Spores in feces ([4]; 50 mg/kg vancomycin, in words) was “spores were observed on day 10; also recorded: no spores were observed until day 10”, the “Reduction in vegetative cells in feces by day 10” value ([4]; dose of compound 2 not stated) was 2 log and the “Total cell counts in feces, reduction on day 10 compared to day 3” value ([4]; vancomycin 50 mg/kg po for 5 days) was 1.02 log. The Toxin in feces ([4]; vancomycin group, day 10, in words) was “toxin was observed”, the “Patients with recurrence of the infection” value (C. difficile infection) was “About 25%” and the MIC (C. difficile BAA-1804; BAA1804, 24 h, read-out: MIC at 24 h) was 1 µg/mL (≈ 0.69 µM). For the same molecule, the MIC (C. difficile BAA-1804; BAA1804, 48 h, read-out: MIC at 48 h) was 1 µg/mL (≈ 0.69 µM), the MIC (Bacteroides fragilis) was 16 µg/mL (≈ 11 µM) and the MIC [5] was 0.25 µg/mL (≈ 0.173 µM). For the same molecule, the MIC [6] was 16 µg/mL (≈ 11 µM), the MIC (C. difficile ATCC43598; ATCC43598, 24 h, read-out: MIC at 24 h) was 1 µg/mL (≈ 0.69 µM) and the MIC (C. difficile ATCC43598; ATCC43598, 48 h, read-out: MIC at 48 h) was 1 µg/mL (≈ 0.69 µM). The MIC (C. difficile BAA-1801; BAA1801, 24 h, read-out: MIC at 24 h) was 0.25 µg/mL (≈ 0.173 µM), the MIC (C. difficile BAA-1801; BAA1801, 48 h, read-out: MIC at 48 h) was 0.25 µg/mL (≈ 0.173 µM) and the “Survival after 25 days” value [7] was 45%. The MIC [8] was 1 µg/mL (≈ 0.69 µM), the MIC (C. difficile NR49292; NR49292, 24 h, read-out: MIC at 24 h) was 0.25 µg/mL (≈ 0.173 µM) and the MIC (C. difficile NR49292; NR49292, 48 h, read-out: MIC at 48 h) was 0.25 µg/mL (≈ 0.173 µM). The MIC [9] was 0.25 µg/mL (≈ 0.173 µM) and the “MIC range in 14 C. difficile strains” value (C. difficile [10]) was 0.25 to 1 µg/mL.
